Data: publication PMC6016456, “Human DHEA sulfation requires direct interaction between PAPS synthase 2 and DHEA sulfotransferase SULT2A1” (The Journal of Biological Chemistry, 2018)

Molecular target: T1, SULT2A1 (Homo sapiens, UniProt Q06520)
T1 construct: expressed from a SULT2A1 vector in HEK293 cells, co-expressed with PAPS synthase EGFP fusions
T1 sequence (Q06520 1-285): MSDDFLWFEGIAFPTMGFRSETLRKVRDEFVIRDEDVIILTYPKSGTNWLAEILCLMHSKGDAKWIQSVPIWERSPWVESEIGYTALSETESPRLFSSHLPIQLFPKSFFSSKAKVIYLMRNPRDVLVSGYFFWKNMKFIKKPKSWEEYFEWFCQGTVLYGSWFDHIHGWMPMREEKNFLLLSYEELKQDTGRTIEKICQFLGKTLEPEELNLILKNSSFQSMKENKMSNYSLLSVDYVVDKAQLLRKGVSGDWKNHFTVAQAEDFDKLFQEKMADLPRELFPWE
Test: DHEA sulfation assay in transfected HEK293 cells
Assay type: cell-based
Details: co-expressed PAPS synthase supplies PAPS

`C[C@]12CC[C@H](O)CC1=CC[C@@H]1[C@@H]2CC[C@]2(C)C(=O)CC[C@@H]12` [DHEA] was tested, and the conversion rate was “co-express PAPS synthase protein variants with cytoplasmic SULT2A1”.
